Assays:
[1] = Salicylate element with and without silver nitrate (Example 3)
Experimental: Standard elements (without blocking reagent) were spotted with solutions containing human serum spiked with salicylate in concentrations between 0 and 60 mg/dL. After a 5 minute incubation at 37°C the reflectance density was measured at 540 nm. Predicted salicylate concentration can be determined by fitting a response curve through the reflectance densities produced.

[2] = Dry salicylate element with blocking agent in the spreading layer (Example 1); conditions: for Salicylate Prediction of Fluid Fluid B: serum with 40 mg/dL salicylate and 100 mg/dL NAC; for Salicylate Prediction of Fluid Fluid B / Salicylate Prediction of Fluid Fluid C / Salicylate Prediction of Fluid Fluid A: agent in spreading layer at given g/m²; for Salicylate Prediction of Fluid Fluid C / Salicylate Prediction of Fluid Fluid A: serum with 40 mg/dL salicylate; for Salicylate Prediction of Fluid Fluid C: one hour exposure to stopper containing 2-benzothiazolethiol; for Salicylate Prediction of Fluid Fluid A: 540 nm, 5 minute, 37°C; for reducing sulfhydryl interference: salicylate element
Experimental: In this example, a dry analytical element formulated for measuring salicylate was used. […] A series of serum samples containing known levels of salicylate were spotted on the various test elements. Absorbance was measured at 540 nm after a 5 minute incubation at 37°C. From this series, a relationship between element absorbance and salicylate level could be made.
Serum samples containing 40 mg/dL of salicylate (Fluid A) and either 100 mg/dL of NAC (Fluid B) or a one hour exposure to a stopper containing 2-benzothiazolethiol (Fluid C) were then spotted on the elements and their predicted salicylate levels determined.

[3] = Screening of sulfhydryl-blocking reagents for NAC interference in the standard SOX solution assay; assay type: biochemical; conditions: more NAC than N-ethyl maleimide
Experimental: (§1) A standard SOX reaction solution can be prepared containing in 1 mL; 100 mM TRIS-C1, pH 7.75, 200 mM sarcosine, 1.5 mM 4-AAP, 0.02% (by weight) phenol, and 5.9 Units peroxidase. All reagents are combined in the assay cuvette and incubated at 37°C for 10 minutes after which time 1 Unit/mL SOX is added to the solution to initiate reaction. Reactions are observed spectrophotometrically at 505 nm; millimolar extinction coefficient is 17.4.
A variety of materials were selected as examples of reagents that might complex with (bind) the sulfhydryl group of NAC and thus block interference. […] One group contains materials not effective under the conditions tested; a second group appeared to minimize NAC interference, but adversely affected the assay. For example, the solution became gel-like or color formation was impaired. It is possible that this group of materials would be effective if they were incorporated apart from the detection chemistry, for example, either attached to beads or polymers or in a separate layer in a multilayer slide format.
The third group contains materials that effectively eliminated NAC interference and had no effect on dye formation or enzyme rate. In each case, the blocking reagent alone (set d) had no effect on the detection system. When this group of blocking reagents and NAC were included in the reaction cuvette, SOX reaction rates improved markedly. […]

horse radish peroxidase = target: T1, horse radish peroxidase (Armoracia rusticana, UniProt P00433); test: Effect of NAC on peroxidase activity (o-dianisidine dye formation); assay type: biochemical; conditions: 1 mM NAC in reaction mixture; 37°C; 430 nm
T1 sequence (P00433 31-338): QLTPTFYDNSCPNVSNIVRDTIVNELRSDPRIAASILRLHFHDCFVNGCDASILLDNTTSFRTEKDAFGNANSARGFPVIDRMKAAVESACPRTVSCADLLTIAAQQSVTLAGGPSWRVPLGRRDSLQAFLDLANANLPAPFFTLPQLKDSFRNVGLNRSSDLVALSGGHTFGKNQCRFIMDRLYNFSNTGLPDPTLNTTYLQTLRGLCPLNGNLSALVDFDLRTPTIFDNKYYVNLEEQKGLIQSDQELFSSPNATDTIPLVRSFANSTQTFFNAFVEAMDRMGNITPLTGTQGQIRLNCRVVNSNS
Experimental: One mL reaction solution was prepared containing 100 mM TRIS-C1, pH 7.75, 0.88 mM H₂O₂, and 0.157 mM o-dianisidine. All reagents were combined in the assay cuvette and incubated at 37°C for 10 minutes after which time 0.59 Unit of horse radish peroxidase was added to the solution to initiate reaction. Reactions were monitored spectrophotometrically at 430 nm; millimolar extinction coefficient was 11.3.

[4] = Effect of NAC on preformed indicator dye in the SOX reaction (bleaching); conditions: for Final absorbances: 505 nm
Experimental: as §1
When determining the effect of NAC on SOX activity, the standard test described above is carried out except that to allow the reaction to go to completion before NAC is added, only 0.1 mM sarcosine is added. Thus, we ensured that all color formation was complete (the sarcosine being depleted). Indicator dye formed in four cuvettes when SOX was added; absorbance endpoint was 1,800. NAC then was added to the cuvettes to the final concentration of 0, 1, 2.5 or 10 mM, and the changes in absorption monitored. Rapidly (less than 10 seconds) each cuvette containing MAC lost color, proportional to MAC concentration. Final absorbances were 1.880, 1.100, 0.600 and 0.150 for cuvette containing 0, 1, 2.5 or 10 mM NAC, respectively.

[5] = Placement of the blocking reagent in the dry salicylate element (Example 2); conditions: Serum w/ Salicylate w/ 100mg/dL N-acetyl cysteine; no blocking reagent
Description: Placement of the blocking reagent in the proper layer of the dry element is essential for stability. In this example, we placed the blocking reagent (0.5 g/m² of maleimide) in the spreading layer of one element, a location that is relatively hydrophobic in nature, and in the reagent layer of another element. […]

[6] = Acetaminophen element with and without maleimide (Example 4); conditions: n-acetylcysteine at 100 mg/dL
Experimental: This example is similar to Example 3 except that the analyte is acetaminophen and the element used for testing is the one shown in Table VII below.
Human serum spiked with acetaminophen varying in concentration between 1 and 294 mg/dL were spotted on the standard element and the element of the invention. After incubating for 5 minutes at 37°C, reflectance density was measured at 670 nm. Predictions of acetaminophen concentration were obtained as was done for salicylate concentration in Example 3. Differences between the predicted values and the values actually obtained from the two elements (standard and the invention) are shown in Table VIII.

## Sc1nc2ccccc2s1 [2-benzothiazolethiol]
[1]; Salicylate at 15 mg/dL, 1 hour contact w/ rubber stoppers containing 2-benzothiazolethiol
  bias, Standard element: -12.9 mg/dL bias
[1]; Salicylate at 40 mg/dl, 1 hour contact w/ rubber stoppers containing 2-benzothiazolethiol
  bias, Standard element: -31.5 mg/dL bias

## NC(=O)CI [Iodoacetamide]
[2]
  Salicylate Prediction of Fluid Fluid B: 12 mg/dL
  Salicylate Prediction of Fluid Fluid C: 42 mg/dL
  Salicylate Prediction of Fluid Fluid A: 40 mg/dL

## CCN1C(=O)C=CC1=O [N-ethyl-maleimide]
[3]
  enzyme rate: no improvement in enzyme rate is observed

## CC(=O)N[C@@H](CS)C(=O)O [NAC, N-acetyl cysteine]
Horse radish peroxidase
  peroxidase activity, as monitored by dye formation: significantly inhibited
[4]; 1 mM NAC added after colour formation complete
  Final absorbances: 1.100
[4]; 2.5 mM NAC added after colour formation complete
  Final absorbances: 0.600
[4]; 10 mM NAC added after colour formation complete
  Final absorbances: 0.150
[4]; cuvettes with 1, 2.5 or 10 mM NAC
  time in which cuvette lost color: less than 10 seconds
[5]
  salicylate prediction, Standard Element: 0.0 mg/dL
[1]; Salicylate at 15 mg/dL, n-acetylcysteine at 102 mg/dL
  bias, Standard element: -11.32 mg/dL bias
[1]; Salicylate at 40 mg/dl, n-acetylcysteine at 102 mg/dL
  bias, Standard element: -40 mg/dL bias
[6]; Acetaminophen at 1 mg/dL
  bias, Standard element: -1.0 mg/dL bias
[6]; Acetaminophen at 52 mg/dl
  bias, Standard element: -52 mg/dL bias
[6]; Acetaminophen at 202 mg/dL
  bias, Standard element: -200 mg/dL bias

## Fe(NO)₃
[2]
  Salicylate Prediction of Fluid Fluid B: 0.0 mg/dL
  Salicylate Prediction of Fluid Fluid C: 17 mg/dL
  Salicylate Prediction of Fluid Fluid A: 40 mg/dL

## Gold Chloride
[2]
  reducing sulfhydryl interference: work well
  Salicylate Prediction of Fluid Fluid B: 40 mg/dL
  Salicylate Prediction of Fluid Fluid C: 40 mg/dL
  Salicylate Prediction of Fluid Fluid A: 40 mg/dL

## Silver Nitrate
[2]
  reducing sulfhydryl interference: work well
  Salicylate Prediction of Fluid Fluid B: 40 mg/dL
  Salicylate Prediction of Fluid Fluid C: 40 mg/dL
  Salicylate Prediction of Fluid Fluid A: 40 mg/dL
[1]; Salicylate at 15 mg/dL, 1 hour contact w/ rubber stoppers containing 2-benzothiazolethiol, 0.4 g/m² silver nitrate
  bias, Std w/ AgNO3: 0.3 mg/dL bias
[1]; Salicylate at 15 mg/dL, n-acetylcysteine at 102 mg/dL, 0.4 g/m² silver nitrate in spreading layer
  bias, Std w/ AgNO3: -0.01 mg/dL bias
[1]; Salicylate at 40 mg/dl, 1 hour contact w/ rubber stoppers containing 2-benzothiazolethiol, 0.4 g/m² silver nitrate
  bias, Std w/ AgNO3: 0.3 mg/dL bias
[1]; Salicylate at 40 mg/dl, n-acetylcysteine at 102 mg/dL, 0.4 g/m² silver nitrate
  bias, Std w/ AgNO3: -1.2 mg/dL bias
